The Kinase Knowledgebase extract (Sharma et al. 2016)

Target: PIK3CA (human) (UniProt P42336)
Assay: Enzyme Assay
Conditions: not given

Sequence of PIK3CA (human) (P42336 whole entry, looked up): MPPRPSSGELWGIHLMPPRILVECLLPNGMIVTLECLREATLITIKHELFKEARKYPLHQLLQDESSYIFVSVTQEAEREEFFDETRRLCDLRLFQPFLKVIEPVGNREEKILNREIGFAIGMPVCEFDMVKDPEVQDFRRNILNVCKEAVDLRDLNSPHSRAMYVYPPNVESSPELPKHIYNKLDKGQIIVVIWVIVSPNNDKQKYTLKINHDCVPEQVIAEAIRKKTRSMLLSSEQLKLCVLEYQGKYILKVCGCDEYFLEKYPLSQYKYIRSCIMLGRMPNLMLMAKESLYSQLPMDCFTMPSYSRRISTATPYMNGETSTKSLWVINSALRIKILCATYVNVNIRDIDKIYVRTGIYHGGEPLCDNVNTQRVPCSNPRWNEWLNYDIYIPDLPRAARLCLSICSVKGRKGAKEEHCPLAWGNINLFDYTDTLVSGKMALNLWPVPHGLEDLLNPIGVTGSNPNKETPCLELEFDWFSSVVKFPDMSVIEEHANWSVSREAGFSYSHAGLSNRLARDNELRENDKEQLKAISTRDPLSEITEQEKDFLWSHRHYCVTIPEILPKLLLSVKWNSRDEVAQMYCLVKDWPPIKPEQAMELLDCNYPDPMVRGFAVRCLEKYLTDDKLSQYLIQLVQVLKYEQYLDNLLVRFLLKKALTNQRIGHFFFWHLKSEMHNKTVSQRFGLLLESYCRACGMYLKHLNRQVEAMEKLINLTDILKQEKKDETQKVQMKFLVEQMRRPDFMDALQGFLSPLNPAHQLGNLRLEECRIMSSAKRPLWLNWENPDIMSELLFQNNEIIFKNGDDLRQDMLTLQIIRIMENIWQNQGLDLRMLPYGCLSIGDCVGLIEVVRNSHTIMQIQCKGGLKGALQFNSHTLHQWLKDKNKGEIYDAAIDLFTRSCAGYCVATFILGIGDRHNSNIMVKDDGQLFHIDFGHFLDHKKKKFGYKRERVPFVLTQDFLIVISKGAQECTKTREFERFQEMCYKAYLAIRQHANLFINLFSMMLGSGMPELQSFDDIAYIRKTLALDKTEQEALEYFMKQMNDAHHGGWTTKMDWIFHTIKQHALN

| SMILES | IC50 [nM] | Kd [nM] |
| --- | --- | --- |
| C[C@@H]1COC[C@@H](C)N1c1nc(Oc2ccc(C(=O)N(C)C)cc2)nc(-c2cnc(N)s2)n1 | 6000 | – |
| COc1ncc(-c2ccc3nnc(C#CC(C)(C)O)n3n2)cc1NS(=O)(=O)c1ccc(F)cc1 | 32 | – |
| CCN1CC(C)(C)Oc2nc(N3CC4CCC(C3)O4)nc(-c3ccc(NC(=O)Nc4cnccn4)cc3)c2C1=O | > 10000 | – |
| CN1CC(C)(C)Oc2nc(N3CC4CCC(C3)O4)nc(-c3ccc(NC(=O)Nc4ccc(N5CC6CCC(C5)O6)nc4)c(F)c3)c2C1=O | > 10000 | – |
| CCN1CC(C)(C)Oc2nc(N3CC4CCC(C3)O4)nc(-c3ccc(NC(=O)Nc4ccn(C)n4)cc3)c2C1=O | 4200 | – |
| O=C(c1cn2cc(-c3cccc4[nH]ncc34)nc(N3CCOCC3)c2n1)N1CCNCC1 | 182 | – |
| C=CC(=O)N1CCC[C@@H](n2nc(-c3ccc(Oc4ccccc4)cc3)c3c(N)ncnc32)C1 | > 10000 | – |
| Cc1nc(-c2cnc3c(C)cc(-c4cncc(NS(=O)(=O)c5ccccc5)c4)cn23)no1 | – | 47 |
| C[C@@H]1COC[C@H](C)N1c1nc(Oc2ccc(C(=O)N(C)C)cc2F)nc(-c2cnc(N)s2)n1 | 1000 | – |
| CN(C)CCCNC(=O)c1cn2cc(-c3cccnc3)nc(N3CCOCC3)c2n1 | 295 | – |

Continued, values first:

| IC50 [nM] | Kd [nM] | SMILES |
| --- | --- | --- |
| 100 to 1000 | – | CS(=O)(=O)N1CCN(c2cnc3c(N4CCOCC4)nc(-c4cccc(O)c4)cn23)CC1 |
| – | 7.8 | Cc1nc(-c2cnc3c(F)cc(-c4cncc(NS(=O)(=O)c5ccccc5)c4)cn23)no1 |
| > 10000 | – | CCN1CC(C)(C)Oc2nc(N3CC4CCC(C3)O4)nc(-c3ccc(NC(=O)Nc4ccnc(N5CCC(F)(F)CC5)c4)c(F)c3)c2C1=O |
| 100 to 1000 | – | COc1cccc(-c2cn3c(I)c(C)nc3c(N3CCOCC3)n2)c1 |
| > 10000 | – | CCN1CC(C)(C)Oc2nc(N3CC4CCC(C3)O4)nc(-c3ccc(NC(=O)N[C@@H](C)CO)c(F)c3)c2C1=O |
| – | 430 | Cc1nc(-c2cnc3c(Cl)cc(-c4cncc(NS(=O)(=O)c5ccccc5)c4)cn23)no1 |
| > 10000 | – | COCCN1CC(C)(C)Oc2nc(N3CC4CCC(C3)O4)nc(-c3ccc(NC(=O)Nc4ccon4)cc3)c2C1=O |
| 1450 | – | CCN1CC(C)(C)Oc2nc(N3CCOC[C@@H]3C)nc(-c3ccc(NC(=O)Nc4ccc(C)cn4)cc3)c2C1=O |
| 617 | – | COCCCNC(=O)c1cn2cc(-c3cccnc3)nc(N3CCOCC3)c2n1 |
| 16 | – | CN1CCN(c2cnc3ccc(-c4cnc(N)c(S(=O)(=O)N(C)C)c4)cc3n2)CC1 |
| 108 | – | CS(=O)(=O)N1CC2CCC(C1)N2c1cn2cc(-c3cnc(N)nc3)nc(N3CCOCC3)c2n1 |
| 5570 | – | CCN1CC(C)(C)Oc2nc(N3[C@@H]4CC[C@H]3COC4)nc(-c3ccc(NC(=O)Nc4ccncc4F)cc3)c2C1=O |
| – | 1230 | COc1cc(-c2cncc(NS(=O)(=O)c3ccccc3)c2)cn2c(-c3noc(C)n3)cnc12 |
| 100 to 1000 | – | COc1ncc(-c2cn3cc(CN4CCN(S(C)(=O)=O)CC4)nc3c(N3CCOCC3)n2)cn1 |
| < 1000 | – | CN(C)C(=O)c1ccc(Nc2nc(-c3ccc(N)nc3)nc(N3CCOCC3)n2)cc1 |

Target: PIK3CA (human) (UniProt P42336)
Assay: Inhibition of PIK3CA Kinase Activity
Conditions: not given

| IC50 [nM] | SMILES |
| --- | --- |
| 340 | O=C1NC(=O)/C(=C/c2ccc(-c3cc(F)cc(F)c3O)o2)S1 |
| 397 | Oc1cccc(-c2nc(N3CCOCC3)c3[nH]cc(C4CCN(Cc5ccc(Cl)nc5)CC4)c3n2)c1 |
| 1 | Cn1ncc2c(Nc3ccc(C(N)=O)cc3)nc(Nc3ccc(NC(=O)Nc4cccnc4)cc3)nc21 |

| SMILES | IC50 [nM] |
| --- | --- |
| Cc1[nH]c2ccc(Br)cc2c1C=C1Oc2cc(O)cc(O)c2C1=O | 179 |

Target: PIK3CA (human) (UniProt P42336)
Assay: Assessment of PIK3CA Kinase Activity
Conditions: not given

| SMILES | IC50 [nM] | Ki [nM] |
| --- | --- | --- |
| NCc1ccc(NC(=O)c2cccc(-c3cc(N4CCOCC4)nc(-c4cccc(CO)c4)n3)c2)cc1 | 100 | – |
| COCCOc1cnc(Nc2cnc(Cl)c(NS(C)(=O)=O)c2)c(-c2nc(C)nc(N)n2)c1 | – | 25 |
| CCc1ncnc(N2CCC3(CCN(C)CC3)CC2)c1C#Cc1ccc(N)nc1 | 136 | – |
| NC(=O)[C@@H]1CCCCN1C1CCN(c2nc(N3CCOCC3)cc(-n3c(C(F)F)nc4ccccc43)n2)CC1 | 600 | – |
| Cc1nc(N)nc(-c2cc(Cl)cnc2Nc2cnc(Cl)c(NS(=O)(=O)N(C)C)c2)n1 | – | 12 |
| COc1cccc2c1nc(C(F)F)n2-c1nc(N2CCOCC2)cc(N2CCN(C(=O)CN)CC2)n1 | 20 | – |
| NCC(=O)N1CC=C(c2cc(N3CCOCC3)nc(-n3c(C(F)F)nc4ccccc43)n2)CC1 | 100 | – |
| Cc1nc(N)cc(n1)C2=C(Nc3cc[nH]n3)NC4=N2N=CC=C4 | 830 | – |

Results, then the compound that gave them:

| IC50 [nM] | Ki [nM] | SMILES |
| --- | --- | --- |
| 11 | – | COc1cccc(Nc2nc(-c3cccc4[nH]nc(N)c34)nc3c2cnn3C)c1OC |
| 4360 | – | CCNC(=O)Nc1ccc(-c2nc(N3CCO[C@H](C)C3)c3cnn(C4CCN(C(=O)OCC)CC4)c3n2)cc1 |
| 10 to 1000 | – | Cn1c(=NC#N)n(-c2ccc(C(C)(C)C#N)nc2)c2c3cc(-c4ccnc(N5CCOCC5)c4Cl)ccc3ncc21 |
| 100 | – | O=C(Nc1cccc(-c2cc(N3CCOCC3)nc(-c3cccc(O)c3)n2)c1)C1CCCNC1 (stereo not given) |
| 18 | – | CCOC(=O)N1CCC(n2ncc3c(N4CCO[C@@H](C)C4)nc(-c4ccc(NC(=O)Nc5ccncc5)cc4)nc32)CC1 |
| 20 | – | Nc1ncc(-c2nc(N3CCOCC3)nc3c2CCN3c2ccc(CN3CCN(CCCCF)CC3)cc2)cn1 |
| 170 | – | Cc1nc(N)nc(-c2c(Nc3ccn[nH]3)nc3ccc(CCC(O)CO)cn23)n1 (stereo not given) |
| 1.7 | – | COc1cccc(Nc2nc(-c3cccc4onc(N)c34)nc3c2cnn3C)c1OC |

Target: PIK3CG (human) (UniProt P48736)
Sequence (P48736 whole entry, looked up): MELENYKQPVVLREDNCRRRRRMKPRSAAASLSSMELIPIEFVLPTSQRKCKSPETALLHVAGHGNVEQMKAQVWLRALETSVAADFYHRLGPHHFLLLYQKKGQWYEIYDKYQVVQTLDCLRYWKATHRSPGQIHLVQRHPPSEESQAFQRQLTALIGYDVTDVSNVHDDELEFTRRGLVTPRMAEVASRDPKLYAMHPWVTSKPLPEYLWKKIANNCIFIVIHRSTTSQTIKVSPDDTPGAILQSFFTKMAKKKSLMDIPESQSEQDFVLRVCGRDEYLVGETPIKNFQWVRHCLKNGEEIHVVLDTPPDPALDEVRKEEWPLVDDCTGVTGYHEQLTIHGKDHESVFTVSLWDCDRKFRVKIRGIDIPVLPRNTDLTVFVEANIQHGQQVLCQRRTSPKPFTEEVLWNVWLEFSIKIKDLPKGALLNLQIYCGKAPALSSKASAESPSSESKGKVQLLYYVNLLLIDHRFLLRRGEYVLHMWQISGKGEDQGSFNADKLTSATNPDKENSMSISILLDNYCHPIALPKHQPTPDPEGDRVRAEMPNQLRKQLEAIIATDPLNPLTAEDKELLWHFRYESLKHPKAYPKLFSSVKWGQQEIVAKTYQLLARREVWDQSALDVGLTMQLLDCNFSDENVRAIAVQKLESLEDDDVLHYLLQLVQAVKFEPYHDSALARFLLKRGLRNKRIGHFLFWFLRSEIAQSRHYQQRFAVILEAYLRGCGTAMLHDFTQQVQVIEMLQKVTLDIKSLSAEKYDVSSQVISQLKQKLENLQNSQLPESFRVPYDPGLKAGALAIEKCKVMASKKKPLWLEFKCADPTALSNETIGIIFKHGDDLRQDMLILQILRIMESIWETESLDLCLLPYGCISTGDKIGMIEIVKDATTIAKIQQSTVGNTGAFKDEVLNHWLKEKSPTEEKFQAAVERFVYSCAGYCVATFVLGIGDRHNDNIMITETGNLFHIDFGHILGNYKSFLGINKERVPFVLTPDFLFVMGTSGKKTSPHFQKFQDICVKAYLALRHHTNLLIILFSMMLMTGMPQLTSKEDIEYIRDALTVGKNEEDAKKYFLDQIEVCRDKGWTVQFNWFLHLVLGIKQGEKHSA
Assay: Inhibition of PIK3CG Kinase Activity
Conditions: not given

| SMILES | IC50 [nM] | Kd [nM] | Ki [nM] |
| --- | --- | --- | --- |
| COC[C@H]1OC(=O)c2coc3c2[C@@]1(C)C1=C(C3=O)[C@@H]2CCC(=O)[C@@]2(C)C[C@H]1O | 26 | – | – |
| O=C1NC(=O)/C(=C/c2ccc(-c3cc(F)cc(F)c3O)o2)S1 | 29 | – | – |
| Cc1[nH]c2ccc(Br)cc2c1C=C1Oc2cc(O)cc(O)c2C1=O | 2220 | – | – |
| Oc1cccc(-c2nc(N3CCOCC3)c3[nH]cc(C4CCN(Cc5ccc(Cl)nc5)CC4)c3n2)c1 | 1450 | – | – |
| CC(=O)Nc1nc(C)c(-c2csc(NCCC(N)=O)n2)s1 | 64 | – | – |
| CC(=O)Nc1nc(C)c(-c2csc(Nc3cccc(-c4nnn[nH]4)c3)n2)s1 | 9 | – | – |
| COc1ccc(OC)c(Nc2nc3ncccc3nc2NS(=O)(=O)c2ccccc2)c1 | 73 | – | – |
| CC(C)(C)NS(=O)(=O)c1cncc(-c2ccc3nc(N)cn3n2)c1 | < 200 | – | – |
| CCN(CC)C(C)=C1C(=O)O[C@H](COC)[C@@]2(C)C1=C(O)C(=O)C1=C2[C@H](OC(C)=O)C[C@]2(C)C(=O)CC[C@@H]12 | 80 | – | – |
| CCn1c(C(=O)Nc2nnn[nH]2)c(-c2ccccc2)c2cc(OC)c(OC)cc21 | 6600 | – | – |
| Cc1cc(NC(=O)CCNC(=O)Nc2cn3cc(Br)ccc3n2)no1 | – | – | 4980 |
| Cn1ncc2c(Nc3ccc(C(N)=O)cc3)nc(Nc3ccc(NC(=O)Nc4cccnc4)cc3)nc21 | 68 | – | – |
| COc1ccc(OC)c(Nc2nc3ccccc3nc2NS(=O)(=O)c2cccnc2)c1 | 56 | – | – |
| CC(C)n1nnc(CCNC(=O)Nc2cn3cc(-c4cnc5ccccc5c4)ccc3n2)n1 | – | – | 570 |
| Cc1cc(NCc2ccccc2)c2nc(N3CCOCC3)cc(=O)n2c1 | > 10000 | – | – |

Further lines, results first:

| IC50 [nM] | Kd [nM] | Ki [nM] | SMILES |
| --- | --- | --- | --- |
| 80 | – | – | COc1ccc(OC)c(Nc2nc3ccccc3nc2NS(=O)(=O)c2cn(C)cn2)c1 |
| 103 | – | – | COc1cc2sc(C(=O)Nc3nn[nH]n3)c(O[C@H]3C[C@H](C)C[C@H](C)C3)c2cc1OC |
| 240 | – | – | COc1ccc(OC)c(Nc2nc3ccccc3nc2NS(=O)(=O)c2ccc3c(c2)sc(=O)n3C)c1 |
| 32 | – | – | COc1cc2sc(C(=O)Nc3nnn[nH]3)c(OC3C[C@@H](C)C[C@@H](C)C3)c2cc1OC (stereo not given in full) |
| 50 | – | – | Cc1nc(NC(=O)NCCC(=O)OC(C)(C)C)sc1-c1ccncc1 |
| 7.2 | 6.5 | – | CC1(C)CCN(C(=O)c2ccc(NC(=O)Nc3ccc(-c4nc(O[C@H]5CCOC5)nc(N5CCOCC5)n4)cc3)cc2)CC1 |
| 16 | – | – | Cc1cc(-c2sc(NC(=O)NCC(=O)N(C)C)nc2C)nc([S+](C)[O-])n1 (stereo not given) |
| 9 | – | – | COc1cc2c(O[C@H]3C[C@@H](C)CC(C)(C)C3)c(C(=O)Nc3nn[nH]n3)sc2cc1C |
| 2 | – | – | O=C1NC(=S)S/C1=C\c1ccc2ncnc(N3CCC(F)CC3)c2n1 |
| 4140 | – | – | CCCn1c(C(=O)Nc2nnn[nH]2)c(-c2ccccc2)c2cc(OC)c(OC)cc21 |
| 445 | – | – | COc1cc2sc(C(=O)Nc3nnn[nH]3)c(OCC3(C)COC3)c2cc1OC |
| 101 | – | – | COc1cc2sc(C(=O)Nc3nnn[nH]3)c(OC3CCCC[C@H]3C)c2cc1OC (stereo not given in full) |
| 30 | – | – | COc1cc(Nc2nc3ccccc3nc2NS(=O)(=O)c2cccc(C(=O)NCCCN(C)C)c2)cc(OC)c1 |
| 430 | – | – | COc1ccc(OC)c(Nc2nc3ccccc3nc2NS(=O)(=O)c2cccc(C#N)c2)c1 |
| 24 | – | – | COc1cc2c(O[C@@H]3CCC[C@@H](C)C3)c(C(=O)Nc3nn[nH]n3)sc2cc1C |
| – | – | 168 | CC(C)n1nnc(CCNC(=O)Nc2cn3cc(-c4cncc(F)c4)ccc3n2)n1 |
| 27 | – | – | COc1cc(Nc2nc3ccccc3nc2NS(=O)(=O)c2ccc(CN(C)C)cc2)cc(OC)c1 |
| 36 | – | – | COc1cc2sc(C(=O)Nc3nnn[nH]3)c(OCC3CCCCCC3)c2cc1OC |
| 510 | – | – | OCc1cccc(-c2nc(N3CCOCC3)c3cnn(C4CCNCC4)c3n2)c1 |
| 20 | – | – | O=C1NC(=O)/C(=C/c2ccc3ncn(-c4ccc5c(c4)CCN5S(=O)(=O)CCCN4CCOCC4)c3n2)S1 |
| < 200 | – | – | COc1ccc(-c2ccc3nc(N)cn3n2)cc1OC |

Same assay, conditions: concentration not given here

| inhibition [%] | SMILES |
| --- | --- |
| 13 | O=C1NC(=O)/C(=C/c2ccc(-c3ccc4ccccc4n3)o2)S1 |

Target: ROCK2 (human) (UniProt O75116)
Sequence (O75116 whole entry, looked up): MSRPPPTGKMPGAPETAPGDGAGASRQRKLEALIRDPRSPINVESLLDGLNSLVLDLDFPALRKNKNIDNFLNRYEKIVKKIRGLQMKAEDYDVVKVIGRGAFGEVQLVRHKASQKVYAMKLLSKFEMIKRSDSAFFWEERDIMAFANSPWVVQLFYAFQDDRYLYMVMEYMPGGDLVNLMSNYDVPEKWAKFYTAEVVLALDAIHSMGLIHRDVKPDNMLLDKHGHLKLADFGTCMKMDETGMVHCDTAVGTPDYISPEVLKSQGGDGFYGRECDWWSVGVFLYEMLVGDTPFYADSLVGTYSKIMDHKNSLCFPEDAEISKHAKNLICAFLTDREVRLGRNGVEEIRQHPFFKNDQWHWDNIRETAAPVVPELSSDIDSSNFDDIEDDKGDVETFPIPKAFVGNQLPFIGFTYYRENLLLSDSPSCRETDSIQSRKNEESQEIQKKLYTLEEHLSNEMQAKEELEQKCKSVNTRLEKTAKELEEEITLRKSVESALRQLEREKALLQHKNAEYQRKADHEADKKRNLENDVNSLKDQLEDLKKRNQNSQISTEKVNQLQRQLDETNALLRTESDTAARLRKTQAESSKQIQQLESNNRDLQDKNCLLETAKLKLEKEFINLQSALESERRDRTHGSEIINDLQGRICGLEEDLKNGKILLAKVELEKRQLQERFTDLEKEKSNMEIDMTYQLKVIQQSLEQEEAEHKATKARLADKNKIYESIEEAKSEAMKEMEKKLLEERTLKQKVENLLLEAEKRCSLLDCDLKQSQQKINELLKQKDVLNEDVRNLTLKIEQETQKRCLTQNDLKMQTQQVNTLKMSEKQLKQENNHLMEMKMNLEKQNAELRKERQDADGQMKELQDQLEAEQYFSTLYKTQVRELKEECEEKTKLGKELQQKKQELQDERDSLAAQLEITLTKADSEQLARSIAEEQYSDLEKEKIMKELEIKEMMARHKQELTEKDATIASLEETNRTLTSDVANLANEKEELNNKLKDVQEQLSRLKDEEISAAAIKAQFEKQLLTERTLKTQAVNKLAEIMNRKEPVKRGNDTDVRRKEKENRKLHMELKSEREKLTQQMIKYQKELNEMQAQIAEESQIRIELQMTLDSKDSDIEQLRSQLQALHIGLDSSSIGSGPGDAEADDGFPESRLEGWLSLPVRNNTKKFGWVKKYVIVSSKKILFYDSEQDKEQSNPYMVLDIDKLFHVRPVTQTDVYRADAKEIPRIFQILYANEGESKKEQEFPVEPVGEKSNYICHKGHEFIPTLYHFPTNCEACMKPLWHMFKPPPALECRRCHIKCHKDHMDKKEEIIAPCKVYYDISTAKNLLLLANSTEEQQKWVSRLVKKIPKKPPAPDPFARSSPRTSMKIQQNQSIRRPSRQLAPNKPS
Assay: Inhibition of ROCK2 Kinase Activity
Conditions: not given

| SMILES | IC50 [nM] | Ki [nM] |
| --- | --- | --- |
| CN1CCCN(c2nc(-c3ccncc3)cnc2N)CC1 | 3100 | – |
| O=C(C(O)c1ccc(Br)cc1)N1CCN(c2ccc3[nH]ncc3c2)CC1 (stereo not given) | 90 | – |
| Nc1nc(Nc2ccc(Sc3ccncc3)c(F)c2)cc(Oc2cccc(Cl)c2)n1 | 70 | – |
| Nc1nc(Nc2ccc(Oc3ccc4cn[nH]c4c3)c(F)c2)cc(-c2ccncc2)n1 | 100 | – |
| Nc1nc(Nc2cc(F)c(Sc3ccncc3)c(Cl)c2)cc(N2C[C@H]3CCCN[C@H]3C2)n1 | 6 | – |
| OC[C@@H](O)COc1cccc(CN2CCC[C@H](Nc3ccc4[nH]ncc4c3)C2)c1 | 323 | – |
| c1c[nH]c(CN2CCC[C@@H](Nc3ccc4[nH]ncc4c3)C2)n1 | – | 1.3 |

Other lines, results leading:

| IC50 [nM] | Ki [nM] | SMILES |
| --- | --- | --- |
| 1310 | – | CSCc1ccc(CN2CCCC(Nc3ccc4[nH]ncc4c3)C2)cc1 (stereo not given) |
| 32.1 | – | C[C@H]1CN(C(=O)CN)CCCN1S(=O)(=O)c1cccc2cncc(F)c12 |
| 4 | – | Cc1c[nH]c2nccc(Nc3ccc(Nc4cc(C(F)(F)F)nc(N)n4)cc3F)c12 |
| – | 300 | C[C@@H](N)[C@]1(C)CC[C@@H](C(=O)Nc2ccncc2)CC1 |
| – | 6.3 | c1cc2ccc(CN3CCC[C@@H](Nc4ccc5[nH]ncc5c4)C3)cc2[nH]1 |
